Holding throughout (format): binding
The target of one test is HDAC1 (Homo sapiens (Human), UniProt Q13547). The test can be described thus: Reporter displacement assay (HDAC1). As to conditions: for Kd: reporter probe displacement, Cheng Prusoff. As for the experimental part:
[The procedure below names another target; the source lists this target under the same test.] HDAC2 containing a C-terminal HIS-Tag (Proteros) and fluorescently-labeled anti-HIS-antibody are diluted in one vial in assay buffer 50 mM Tris, pH 8.0, 1 mM DTT, 150 mM NaCl, and 0.01% Tween20. Components are pre-incubated for 30 min, then a small volume of reporter probe (Proteros) is added from a highly concentrated stock and incubation is continued for another 30 min.
Ten μl/well of pre-formed complex are transferred into 384 well assay plates (Corning). Compounds to be profiled are serially diluted from […] in DMSO and 60 nl are added to assay plates by pintool transfer (CybiWell, Cybio).
For Kd determination, percent probe displacement values are calculated for each compound concentration and plotted against the compound concentration. […] Since the reporter probe is used at a concentration reflecting its own Kd value, compound Kd values can be calculated according to the Cheng Prusoff equation.

For test [1], the target named is T1, HDAC2 (Homo sapiens (Human), UniProt Q92769). In words: Reporter displacement assay (HDAC2). As to conditions: reporter probe displacement, Cheng Prusoff. The method, then: HDAC2 containing a C-terminal HIS-Tag (Proteros) and fluorescently-labeled anti-HIS-antibody are diluted in one vial in assay buffer 50 mM Tris, pH 8.0, 1 mM DTT, 150 mM NaCl, and 0.01% Tween20. Components are pre-incubated for 30 min, then a small volume of reporter probe (Proteros) is added from a highly concentrated stock and incubation is continued for another 30 min. Final concentrations after adding the reporter probe amount to 20 nM HDAC2, 4 nM antibody, and 180 nM probe.
Ten μl/well of pre-formed complex are transferred into 384 well assay plates (Corning). Compounds to be profiled are serially diluted from […] in DMSO and 60 nl are added to assay plates by pintool transfer (CybiWell, Cybio). Fluorescence intensity signal is read after 4 h in a Pherastar FS (BMG Labtech) at 337/665 nm.
For Kd determination, percent probe displacement values are calculated for each compound concentration and plotted against the compound concentration. IC50-like values (corresponding to 50% probe displacement) are calculated using standard fitting algorithms. Since the reporter probe is used at a concentration reflecting its own Kd value, compound Kd values can be calculated according to the Cheng Prusoff equation.
In the table, “A” indicates a Kd value of less than 0.1 μM; “B” a Kd value of between 0.1 μM and 0.5 μM; “C” a Kd value of greater than 0.5 μM and less than or equal to 5.0 μM; and “D” a Kd value of greater than 5.0 μM.

In test [2] the target is T1, HDAC2. The test can be described thus: Reporter displacement assay (HDAC2).

Chain of HDAC1 (Q13547 whole entry): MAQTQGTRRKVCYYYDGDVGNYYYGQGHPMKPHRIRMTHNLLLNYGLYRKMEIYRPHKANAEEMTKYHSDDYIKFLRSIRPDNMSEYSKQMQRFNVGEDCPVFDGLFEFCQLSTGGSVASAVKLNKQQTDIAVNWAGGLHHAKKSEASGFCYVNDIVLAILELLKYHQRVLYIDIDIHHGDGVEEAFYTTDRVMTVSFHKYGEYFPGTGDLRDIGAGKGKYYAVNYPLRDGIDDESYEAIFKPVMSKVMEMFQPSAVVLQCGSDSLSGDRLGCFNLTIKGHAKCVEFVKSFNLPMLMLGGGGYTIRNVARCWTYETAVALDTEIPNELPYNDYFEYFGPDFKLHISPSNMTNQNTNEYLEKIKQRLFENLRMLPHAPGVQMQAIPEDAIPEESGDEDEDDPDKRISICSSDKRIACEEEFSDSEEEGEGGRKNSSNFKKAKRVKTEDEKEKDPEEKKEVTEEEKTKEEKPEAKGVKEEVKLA
T1 sequence (Q92769 whole entry): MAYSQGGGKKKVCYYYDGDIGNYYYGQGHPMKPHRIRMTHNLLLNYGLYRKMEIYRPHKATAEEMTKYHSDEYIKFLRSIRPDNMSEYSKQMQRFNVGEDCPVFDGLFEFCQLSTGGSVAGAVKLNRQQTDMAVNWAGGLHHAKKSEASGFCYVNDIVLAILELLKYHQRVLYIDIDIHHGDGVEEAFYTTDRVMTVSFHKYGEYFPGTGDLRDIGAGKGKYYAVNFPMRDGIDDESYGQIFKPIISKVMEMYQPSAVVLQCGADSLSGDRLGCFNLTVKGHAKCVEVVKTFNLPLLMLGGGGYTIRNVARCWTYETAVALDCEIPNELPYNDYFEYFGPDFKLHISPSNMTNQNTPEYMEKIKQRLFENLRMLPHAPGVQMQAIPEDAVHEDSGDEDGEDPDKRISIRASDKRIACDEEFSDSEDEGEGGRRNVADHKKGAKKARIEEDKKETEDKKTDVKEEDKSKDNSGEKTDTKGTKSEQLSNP

As usually defined, the Kd is a measure of binding affinity in units of concentration. Take `COc1ccc(-c2ccc(N)c(NC(=O)N3Cc4ccncc4C3)c2)cc1` [Compound 139]: the residence time at HDAC1 is 1450 min; at HDAC2 [2] it was 2260 min. Moreover, the dissociation constant (Kd) at HDAC1 and on HDAC2 [1] was less than 100 nM each time.
For the compound `Nc1ccc(-c2ccc(F)cc2)cc1NC(=O)N1CC2(CCOCC2)C1` [Compound 148], the results for the residence time on HDAC1 and on HDAC2 [2] were 233 min and 809 min, respectively. The Kd at HDAC1 and at HDAC2 [1] was 500 to 5000 nM in each case.
As for `Nc1ccc(-c2ccc(C(F)(F)F)cc2F)cc1NC(=O)N1Cc2ccncc2C1` [Compound 132], the residence time on HDAC1 was 47 min; on HDAC2 [2], 111 min. For the same compound, the Kd on HDAC1 and on HDAC2 [1] was 500 to 5000 nM each time.
Turning to `Nc1ccc(-c2ccc(F)cc2)cc1NC(=O)N1CC2(CCNCC2)C1` [Compound 169], the residence time on HDAC1 came out at 120 min; at HDAC2 [2], 716 min. Moreover, the Kd on HDAC1 and on HDAC2 [1] was 500 to 5000 nM each time.
Take `Nc1ccc(-c2ccc(F)cc2)cc1NC(=O)c1cn2c(n1)CNCC2` [Compound 122]: the figures for the residence time at HDAC1 and at HDAC2 [2] were 1480 min and 1950 min, respectively. For the same compound, the Kd was less than 100 nM on HDAC1 and 100 to 500 nM on HDAC2 [1].
With `Nc1ccc(-c2cccnc2)cc1NC(=O)N1Cc2ccncc2C1` [Compound 134], the residence time amounted to 192 min at HDAC1 and 790 min at HDAC2 [2]. Also, the dissociation constant (Kd) on HDAC1 and on HDAC2 [1] was 100 to 500 nM each time.
Consider `Nc1ccc(-c2ccc(F)cc2)cc1NC(=O)c1nc2c(s1)CCNC2` [Compound 175], for which the residence time worked out at 1170 min on HDAC1 and 2710 min on HDAC2 [2]. In addition, the Kd at HDAC1 and on HDAC2 [1] was less than 100 nM throughout.
On to `Nc1ccc(-c2ccc(F)cc2)cc1NC(=O)N1CCC2(CCOCC2)C1` [Compound 172], for which the results for the residence time at HDAC1 and on HDAC2 [2] were 299 min and 987 min, respectively. For the same compound, the Kd on HDAC1 and on HDAC2 [1] was 100 to 500 nM throughout.
Take `Nc1ccc(-c2ccc(F)c(F)c2)cc1NC(=O)N1Cc2ccncc2C1` [Compound 135]: the values for the residence time on HDAC1 and at HDAC2 [2] were 353 min and 1210 min, respectively. For the same compound, the Kd on HDAC1 and on HDAC2 [1] was 100 to 500 nM each time.
`Nc1ccc(-c2ccc(F)cc2)cc1NC(=O)c1cn2c(n1)CCCC2` [Compound 150]: the figures for the residence time on HDAC1 and on HDAC2 [2] were 1080 min and 1010 min, respectively. In addition, the values for the Kd on HDAC1 and on HDAC2 [1] were 100 to 500 nM and 500 to 5000 nM, respectively.
The matching figures for `CCOC(=O)N1CC2CN(C(=O)Nc3cc(-c4ccc(F)cc4)ccc3N)CC2C1` (centres unmarked) [Compound 155]: 1630 min, 1720 min, 100 to 500 nM and 500 to 5000 nM.
Take `CC(C)CC(=O)N1CC2CN(C(=O)Nc3cc(-c4ccc(F)cc4)ccc3N)CC2C1` (centres unmarked) [Compound 160]: the residence time was 848 min at HDAC1 and 1730 min at HDAC2 [2]. Further, the equilibrium dissociation constant (Kd) on HDAC1 and on HDAC2 [1] was 100 to 500 nM in each case.
`Nc1ccc(-c2ccc(F)cc2)cc1NC(=O)N1CCC2(CCOC2)CC1` [Compound 173]: the values for the residence time on HDAC1 and on HDAC2 [2] were 1210 min and 1250 min, respectively. The Kd is less than 100 nM on HDAC1 and 100 to 500 nM at HDAC2 [1].
For the compound `Nc1ccc(-c2ccc(Cl)cc2)cc1NC(=O)N1Cc2ccncc2C1` [Compound 130], the residence time on HDAC1 was found to be 1080 min; at HDAC2 [2], 1300 min. The Kd at HDAC1 was less than 100 nM; at HDAC2 [1], 100 to 500 nM.
Regarding `Cn1cc(-c2ccc(N)c(NC(=O)N3Cc4ccncc4C3)c2)cn1` [Compound 145], the residence time worked out at 876 min on HDAC1 and 1250 min at HDAC2 [2]. The Kd at HDAC1 and at HDAC2 [1] was 100 to 500 nM each time.
With `Nc1ccc(-c2ccoc2)cc1NC(=O)N1Cc2ccncc2C1` [Compound 151], the residence time at HDAC1 was 1130 min; at HDAC2 [2], 6280 min. The dissociation constant Kd on HDAC1 and at HDAC2 [1] was less than 100 nM throughout.
As for `CC(C)(C)OC(=O)N1CCC2(CCN(C(=O)Nc3cc(-c4ccc(F)cc4)ccc3N)CC2)C1` [Compound 161], the residence time at HDAC1 was 1170 min; on HDAC2 [2], 2640 min. The figures for the dissociation constant (Kd) at HDAC1 and at HDAC2 [1] were less than 100 nM and 100 to 500 nM, respectively.
Taken in the same sequence, the figures for `Nc1ccc(-c2ccncc2)cc1NC(=O)N1Cc2ccncc2C1` [Compound 102] were 1240 min, 1410 min, less than 100 nM and 100 to 500 nM.
Taken in the same sequence, the figures for `CC(C)COC(=O)N1CC2CN(C(=O)Nc3cc(-c4ccc(F)cc4)ccc3N)CC2C1` (centres unmarked) [Compound 157] were 838 min, 1360 min, less than 100 nM and 100 to 500 nM.
For the compound `Nc1ccc(-c2ccc(F)cc2)cc1NC(=O)N1CC2CCC(C1)N2C=O` [Compound 117], the residence time on HDAC1 worked out at 29 min; at HDAC2 [2] it was 36 min. The Kd on HDAC1 is greater than 5000 nM; on HDAC2 [1] it was 500 to 5000 nM.
With `Nc1ccc(-c2ccc(F)cc2)cc1NC(=O)c1nc2c(s1)CNCC2` [Compound 147], the figures for the residence time at HDAC1 and on HDAC2 [2] were 1340 min and 1620 min, respectively. Also, the Kd at HDAC1 was less than 100 nM; on HDAC2 [1] it was 100 to 500 nM.
For `Nc1ccc(-c2ccc(F)cc2)cc1NC(=O)N1Cc2nccnc2C1` [Compound 119], the residence time on HDAC1 turned out to be 1500 min; at HDAC2 [2], 2150 min. Also, the equilibrium dissociation constant (Kd) on HDAC1 and on HDAC2 [1] was 100 to 500 nM in each case.
In the case of `COCCN1CCC2(CCN(C(=O)Nc3cc(-c4ccc(F)cc4)ccc3N)CC2)C1` [Compound 138], the residence time turned out to be 724 min on HDAC1 and 2370 min at HDAC2 [2]. The Kd on HDAC1 and on HDAC2 [1] was 100 to 500 nM in each case.

These data come from patent US10421756B2, “Heterobicyclic N-aminophenyl-amides as inhibitors of histone deacetylase” (Rodin Therapeutics, Inc., priority 2015, dated 2019).
